Data published in US20120108629A1, “New use of neferine” (Institute of Chinese Materia Medica, China Academy, priority 2009, published 2012).

Key:
[1] = test system: Cancer gene-containing human breast epithelial cell line MCF10A-Myc; assay: Inhibition on proliferation, MCF10A-Myc; assay type: cell-based; settings: 72 h incubation
Source text: (§1) Inhibition on proliferation of human cancer cells: It is reported that the drugs that up-regulate TRPM8 or down-regulate TRPV1 can inhibit proliferation of breast cancer. To further investigate whether neferine follow the same way, human breast cancer cell line MDA-MB-231 and MDA-MB-453 as well as cancer gene-containing human breast gland epithelial cell line MCF10A-Myc and human pancreatic cancer cell line MIAPaCa-2 were employed and cultured in DMEM or DMEM/F12 medium with epithelial growth factor in vitro. After incubation with various concentrations of test agents for 72 h, the effective concentration of them for inhibiting the tumor cells was assayed according to the common method in the art.
(§2) According to the “Inhibition on proliferation of human cancer cells” described above, the effective concentrations of neferine for the inhibition of tumors were obtained (table 11).

TRPV1 mRNA = TRPV1 mRNA expression in DRG cells by real-time PCR; assay type: cell-based, rat; settings: for TRPV1 mRNA expression (2^−ΔΔCT): 37° C. 24 h
[2] = test system: Human breast cancer cell line MDA-MB-453; assay: Inhibition on proliferation of human cancer cells, MDA-MB-453; assay type: cell-based; settings: MDA-MB-453, 72 h incubation
Source text: as §1, §2

[3] = test system: Human breast cancer cell line MDA-MB-231; assay: Inhibition on proliferation of human cancer cells, MDA-MB-231; assay type: cell-based; settings: MDA-MB-231, 72 h incubation
Source text: as §1, §2

breast cancer cells = assay: Inhibition on proliferation of human cancer cells, breast cancer cells; assay type: cell-based
Source text: as §1, §2

TRPM8 mRNA = TRPM8 mRNA expression in DRG cells by real-time PCR; settings: for Effect on TRPM8 mRNA expression (in words) / TRPM8 mRNA expression (2^−ΔΔCT): DRG cells
Protocol: DRG were aseptically removed and meticulously cleaned the rootlets and connective tissue. The tissue was digested with collagenase and trypsin in succession, and then centrifuged and the digestive liquid was discarded. Cells were prepared into single cell suspension in common culture medium, and then calculated and adjusted to 10^5 nerve cells per ml. It was incubated in culture plates pre-coated with laminin at 37° C. in 5% CO2 for 48 hours. Camptothecine was used to inhibit proliferation of other cells. Culture was continued to obtain DRG cells with a high purity (>98%).
Detection of TRPM8 and TRPV1 mRNA expression: The total RNA of the DRG neuronal cells was extracted in a routine way, after exposure to the tested agents of various concentrations under the normal, low and high temperature conditions respectively. The concentration of RNA was measured and its cDNA was prepared. The desired amount of resulting cDNA and TRPM8 or TRPV1 gene primers were added on the IQ5-Type real-time IQ5-Type real-time PCR meter with GAPDH as the endogenous control to perform extension. Melting curves were generated. Relative gene expression was calculated using the comparative threshold cycle (2-^ΔΔCT) method with the calculated formula as following:
ΔΔCt=(Ct,Target-Ct,GAPDH)x-(Ct,Target-Ct,GAPDH)Control
X represents any one of tested, Control represents double target gene expression after GAPDH correction.
The purified culture medium of DRG cells was added with three different concentrations of test compounds and cultured at 37° C. in 5% CO2 for 24 h. The total RNA was extracted immediately after culture. The TRPM8 agonist hexahydrothymol was positive control group and the normal culture medium was vehicle control group. Then the real-time PCR amplification was performed and TRPM8 mRNA was determined.
The purified culture medium of DRG cells was added with three different concentrations of test compounds and cultured at 37° C. in 5% CO2 for 23 h followed by 39° C. in 5% CO2 for 1 h. The total RNA was extracted immediately after culture. The TRPM8 agonist hexahydrothymol was positive control group and the normal culture medium was vehicle control group. Then the real-time PCR amplification was performed and TRPM8 mRNA was determined.
The purified culture medium of DRG cells was added with three different concentrations of test compounds and cultured at 37° C. in 5% CO2 for 22 h followed by 19° C. in 5% CO2 for 2 h. The total RNA was extracted immediately after culture. The TRPM8 agonist hexahydrothymol was positive control group and the normal culture medium was vehicle control group. Then the real-time PCR amplification was performed and TRPM8 mRNA was determined.

[4] = test system: Human pancreas cancer cell line MIAPaCa-2; assay: Inhibition on proliferation of human cancer cells, MIAPaCa-2; assay type: cell-based
Source text: as §1, §2

TRPV1 [5] = assay: Intracellular calcium change in DRG cells, Fluo-4 fluorescence (Examples 4-5, Tables 4-5); assay type: cell-based, rat
Protocol: (§3) Detection of intracellular calcium concentrations of DRG cells: DRG cells cultured under normal, low and high temperature conditions was obtained. The medium was discarded and the cells were washed after certain time. 0.1%F-127, 5 μM of Fluo-4-AM, M fluorescent dye were added and loaded at 25° C. out of light for 30 min. After dye loading, the redundant dye was washed out and buffer and test compounds were added respectively. The cells were put in a closed chamber on a microscope stage. Fluorescence dyed cells were detected with appropriate conditions. The change of fluorescence intensity in each cell was determined and the data were analyzed by software. The change of the intracellular calcium concentration was indicated by fluorescence intensity. The change degree of the intracellular calcium concentration was represented by the percent ratio of the change value of fluorescence intensity before and after administration and the value of fluorescence intensity before administration (Δ[Ca2+]i), i.e. Δ[Ca2+]i=(fluorescence intensity value after administration F-fluorescence intensity value before administration F0)/fluorescence intensity value before administration F0×100%. The change of the intracellular calcium concentration indicated the function of TRP.
(§4) The medium was discarded and the fluorescent dye was added and loaded for 30 min. The change of fluorescence intensity in cell was determined in a closed chamber on a microscope stage and the change of the intracellular calcium concentration was assayed.
as §4

TRPV1 [6] = biological target: TRPV1 (Rattus norvegicus, UniProt O35433); assay: Intracellular calcium change in DRG cells, Fluo-4 fluorescence (Examples 9-11, Tables 9-11); assay type: cell-based
Protocol: as §3, §4, §4
(this is the appropriate stimulation time for the intracellular calcium change after stimulation under 19° C., and the experiment data was not shown). The medium was discarded and the fluorescent dye was added and loaded for 30 min.

[7] = 37° C. 22 h then 19° C. 2 h, 2.5 μmol/L
[8] = 37° C. 22 h then 19° C. 2 h, 5 μmol/L
[9] = 37° C. 22 h then 19° C. 2 h, 10 μmol/L
[10] = 37° C. 23 h then 39° C. 1 h, 2.5 μmol/L
[11] = 37° C. 23 h then 39° C. 1 h, 5 μmol/L
[12] = 37° C. 23 h then 39° C. 1 h, 10 μmol/L

Chain of TRPV1 (Rattus norvegicus, UniProt O35433) (O35433 whole entry): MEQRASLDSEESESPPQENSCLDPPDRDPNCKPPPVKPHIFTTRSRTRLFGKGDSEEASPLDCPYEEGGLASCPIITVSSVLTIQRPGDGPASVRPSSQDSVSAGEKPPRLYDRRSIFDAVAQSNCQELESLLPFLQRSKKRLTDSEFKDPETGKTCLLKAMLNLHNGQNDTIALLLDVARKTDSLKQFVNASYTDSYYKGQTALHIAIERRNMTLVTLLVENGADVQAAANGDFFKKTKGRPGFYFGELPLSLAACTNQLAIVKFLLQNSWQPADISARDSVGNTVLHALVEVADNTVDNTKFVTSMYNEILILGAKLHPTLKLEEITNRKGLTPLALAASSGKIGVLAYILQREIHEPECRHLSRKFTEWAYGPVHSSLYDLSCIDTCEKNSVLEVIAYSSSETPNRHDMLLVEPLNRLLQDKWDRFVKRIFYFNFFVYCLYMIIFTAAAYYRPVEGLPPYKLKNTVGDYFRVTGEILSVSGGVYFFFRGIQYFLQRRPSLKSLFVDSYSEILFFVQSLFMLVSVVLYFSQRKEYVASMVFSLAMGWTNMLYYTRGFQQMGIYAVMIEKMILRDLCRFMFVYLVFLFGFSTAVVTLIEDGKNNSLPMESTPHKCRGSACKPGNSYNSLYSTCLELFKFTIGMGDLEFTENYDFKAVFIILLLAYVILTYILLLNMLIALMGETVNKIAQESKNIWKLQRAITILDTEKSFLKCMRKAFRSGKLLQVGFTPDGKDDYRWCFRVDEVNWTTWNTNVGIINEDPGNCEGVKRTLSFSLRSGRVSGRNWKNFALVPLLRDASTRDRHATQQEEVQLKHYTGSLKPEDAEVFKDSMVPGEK

Substance: neferine
- Inhibition concentration [1]: 5.95 µg/mL
- Effect on TRPV1 mRNA expression (in words) (TRPV1 mRNA; 19° C.): further inhibit expression levels of TRPV1 mRNA dose-dependently
- TRP V1 mRNA expression(2^−ΔΔCT) (TRPV1 mRNA; [7]): 0.54 ± 0.17
- TRP V1 mRNA expression(2^−ΔΔCT) (TRPV1 mRNA; [8]): 0.47 ± 0.20
- TRP V1 mRNA expression(2^−ΔΔCT) (TRPV1 mRNA; [9]): 0.45 ± 0.23
- TRP V1 mRNA expression(2^−ΔΔCT) (TRPV1 mRNA; [10]): 4.16 ± 0.71
- TRP V1 mRNA expression(2^−ΔΔCT) (TRPV1 mRNA; [11]): 3.70 ± 0.69
- TRP V1 mRNA expression(2^−ΔΔCT) (TRPV1 mRNA; [12]): 3.13 ± 0.51
- TRPV1 mRNA expression (2^−ΔΔCT) (TRPV1 mRNA; 2.5 μmol): 0.96 ± 0.41
- TRPV1 mRNA expression (2^−ΔΔCT) (TRPV1 mRNA; 5 μmol): 1.09 ± 0.30
- TRPV1 mRNA expression (2^−ΔΔCT) (TRPV1 mRNA; 10 μmol): 1.04 ± 0.43
- Effect on TRPV1 mRNA expression (in words) (TRPV1 mRNA; 37° C., under the test concentrations): could not change expression levels of TRPV1 mRNA
- Effect on TRPV1 mRNA expression (in words) (TRPV1 mRNA; 39° C.): decrease the expression levels of TRPV1 mRNA dose-dependently
- Inhibition concentration [2]: 2.05 µg/mL
- Inhibition concentration [3]: 1.30 µg/mL
- inhibition concentration on breast cancer cells (breast cancer cells): below 2.1 μg/ml
- Effect on TRPM8 mRNA expression (in words) (TRPM8 mRNA; 19° C.): up-regulate the expression levels of TRPM8 mRNA dose-dependently
- Effect on TRPM8 mRNA expression (in words) (TRPM8 mRNA; 37° C.): up-regulate the expression levels of TRPM8 mRNA dose-dependently
- TRPM8 mRNA expression (2^−ΔΔCT) (TRPM8 mRNA; [7]): 3.25 ± 0.65
- TRPM8 mRNA expression (2^−ΔΔCT) (TRPM8 mRNA; [8]): 3.37 ± 0.87
- TRPM8 mRNA expression (2^−ΔΔCT) (TRPM8 mRNA; [9]): 3.49 ± 0.82
- TRPM8 mRNA expression (2^−ΔΔCT) (TRPM8 mRNA; [10]): 0.74 ± 0.23
- TRPM8 mRNA expression (2^−ΔΔCT) (TRPM8 mRNA; [11]): 0.78 ± 0.33
- TRPM8 mRNA expression (2^−ΔΔCT) (TRPM8 mRNA; [12]): 0.79 ± 0.24
- TRPM8 mRNA expression (2^−ΔΔCT) (TRPM8 mRNA; 37° C. 24 h, 2.5 μmol/L): 1.10 ± 0.27
- TRPM8 mRNA expression (2^−ΔΔCT) (TRPM8 mRNA; 37° C. 24 h, 5 μmol/L): 1.14 ± 0.31
- TRPM8 mRNA expression (2^−ΔΔCT) (TRPM8 mRNA; 37° C. 24 h, 10 μmol/L): 1.28 ± 0.27
- Effect on TRPM8 mRNA expression (in words) (TRPM8 mRNA; 39° C.): did not up-regulate TRPM8 mRNA expression
- Effect compared with the agonist hexahydrothymol (in words) (TRPM8 mRNA; general statement on TRPM8): stronger effect than hexahydrothymol
- Inhibition concentration ([4]; MIAPaCa-2, 72 h incubation): 3.64 µg/mL
- inhibition concentration for pancreas ([4]; pancreas cancer cells): below 4 μg/ml
- Effect on intracellular calcium concentration (in words) (TRPV1 [5]; Example 4, DRG cells, 37° C.): increase the intracellular calcium concentration dose-dependently
- Intracellular Calcium changes [(F1 − F0)/F0/%] (TRPV1 [5]; Table 4, DRG cells, 37° C. 24 h, 2.5 μmol/L): 121.41 ± 10.05%
- Intracellular Calcium changes [(F1 − F0)/F0/%] (TRPV1 [5]; Table 4, DRG cells, 37° C. 24 h, 5 μmol/L): 128.16 ± 11.48%
- Intracellular Calcium changes [(F1 − F0)/F0/%] (TRPV1 [5]; Table 4, DRG cells, 37° C. 24 h, 10 μmol/L): 132.07 ± 19.30 %
- Intracellular Calcium changes [(F1 − F0)/F0/%] (TRPV1 [5]; Table 5, DRG cells, 37° C. 22 h then 39° C. 2 h, 2.5 μmol/L): 107.88 ± 13.07%
- Intracellular Calcium changes [(F1 − F0)/F0/%] (TRPV1 [5]; Table 5, DRG cells, 37° C. 22 h then 39° C. 2 h, 5 μmol/L): 108.09 ± 12.85%
- Intracellular Calcium changes [(F1 − F0)/F0/%] (TRPV1 [5]; Table 5, DRG cells, 37° C. 22 h then 39° C. 2 h, 10 μmol/L): 112.72 ± 11.74 %
- Effect on intracellular calcium concentration (in words) (TRPV1 [6]; Example 9, DRG cells, 37° C.): decrease the concentration of intracellular calcium dose-dependently
- correlation coefficient of dose dependence, intracellular calcium (TRPV1 [6]; Example 9, DRG cells, 37° C.): −0.85
- Effect on intracellular calcium concentration (in words) (TRPV1 [6]; Example 10, DRG cells, 39° C.): inhibit the change of the intracellular calcium concentration dose-dependently
- correlation coefficient of dose dependence, intracellular calcium (TRPV1 [6]; Example 10, DRG cells, 39° C.): −0.815
- Effect on intracellular calcium concentration (in words) (TRPV1 [6]; Example 11, DRG cells, 19° C.): further inhibit the change of the intracellular calcium concentration dose-dependently
- correlation coefficient of dose dependence, intracellular calcium (TRPV1 [6]; Example 11, DRG cells, 19° C.): −0.99
- Intracellular Calcium changes [(F1 − F0)/F0/%] (TRPV1 [6]; Table 9, DRG cells, 37° C. 24 h, 2.5 μmol/L): 98.15 ± 10.71%
- Intracellular Calcium changes [(F1 − F0)/F0/%] (TRPV1 [6]; Table 9, DRG cells, 37° C. 24 h, 5 μmol/L): 98.64 ± 12.77%
- Intracellular Calcium changes [(F1 − F0)/F0/%] (TRPV1 [6]; Table 9, DRG cells, 37° C. 24 h, 10 μmol/L): 96.33 ± 8.96%
- Intracellular Calcium changes [(F1 − F0)/F0/%] (TRPV1 [6]; Table 10, DRG cells, 37° C. 22 h then 39° C. 2 h, 2.5 μmol/L): 128.63 ± 14.40%
- Intracellular Calcium changes [(F1 − F0)/F0/%] (TRPV1 [6]; Table 10, DRG cells, 37° C. 22 h then 39° C. 2 h, 5 μmol/L): 120.51 ± 11.29%
- Intracellular Calcium changes [(F1 − F0)/F0/%] (TRPV1 [6]; Table 10, DRG cells, 37° C. 22 h then 39° C. 2 h, 10 μmol/L): 119.49 ± 11.21%
- Intracellular Calcium changes [(F1 − F0)/F0/%] (TRPV1 [6]; Table 11, DRG cells, 37° C. 21 h then 19° C. 3 h, 2.5 μmol/L): 99.71 ± 10.96%
- Intracellular Calcium changes [(F1 − F0)/F0/%] (TRPV1 [6]; Table 11, DRG cells, 37° C. 21 h then 19° C. 3 h, 5 μmol/L): 98.30 ± 11.89%
- Intracellular Calcium changes [(F1 − F0)/F0/%] (TRPV1 [6]; Table 11, DRG cells, 37° C. 21 h then 19° C. 3 h, 10 μmol/L): 93.02 ± 10.54%
